Test system: Schaffer collateral (SC)-CA1 synapse of the hippocampus
Assay: fEPSP recording in hippocampal SC-CA1 synapse (hippocampal slices)
Format: cell-based, mouse
Details: 10 μM, applied after SYR
Protocol: A hippocampus slice (400 μm thick) was prepared in a cold dissection buffer using a vibrating machine (Vibratome, Leica, Germany) and then a CA3 region of each slice was removed surgically immediately after the slice formation. In this connection, the cold dissection buffer contained sucrose 230 mM; NaHCO3 25 mM; KCl 2.5 mM; NaH2PO4 1.25 mM; D-glucose 10 mM; Na-ascorbic acid salt 1.3 mM; MgCl2 3 mM; CaCl2 0.5 mM, 95% O2/5% CO2 and had pH 7.4. The slice was recovered in a normal ACSF (artificial cerebrospinal fluid) for 1 hour and then maintained at room temperature (23 to 25° C.) until recording. […] All electrophysiological experiments were performed in a recording chamber while the samples were immersed in the solution in a manner described previously (Song et al., 2017). Signals were amplified using a MultiClamp 700B amplifier (Molecular Devices, CA, USA) at a cut-off frequency of 2.8 kHz and were measured with a Digidata 1440A interface (Molecular Devices) at a 10 kHz sampling frequency. Data were collected using pClamp 10.2 (Molecular Devices) software. The collected data were analyzed with a program created in the lab using Igor Pro (WaveMetrics, OR, USA). To record the field excitatory post-synaptic potential (fEPSP) in the hippocampal SC-CA1 synapse, hippocampal slices were placed in the recording chamber and perfused with ACSF while oxygen was fed continuously to the ACSF. The ACSF was maintained at a temperature of 29 to 30° C. using a heater for perfusion (SH-27B, Warner Instruments, CT, USA). A synapse response was induced by stimulation with a glass pipette (0.3 to 0.5 Mohm) every 20 seconds (0.05 Hz). The synapse response was recorded using a glass pipette (3 to 4 Mohm) filled with ACSF. The intensity of the stimulus was adjusted to produce a synapse response of about ⅓ of the maximum value thereof. The slices with unstable (10%) baseline records were excluded. To investigate the effect of syringaresinol (SYR) on the synaptic transmission, the field excitatory post-synaptic potential (fEPSP) of the Schaffer collateral (SC)-CA1 synapse of the hippocampus of adult mice (4 to 6 weeks of age) was measured. After confirming the stable baseline, different concentrations of SYR were applied thereto using the perfusion solution.

Compound: NS(=O)(=O)c1cccc2c1c([N+](=O)[O-])cc1nc(O)c(O)nc12 [NBQX, reference compound]
- block of the synaptic response (fEPSP): completely blocked

Source: patent publication US11000501B2, “Composition for preventing or treating neurological and mental disorders, containing syringaresinol” (SEOUL NATIONAL UNIVERSITY R&DB FOUNDATION, priority 2016, dated 2021)
